Results: US11109593B2, “Isoxazolin-5-one derivative and herbicide containing same as active ingredient” (HOKKO CHEMICAL INDUSTRY CO., LTD., priority 2017, dated 2021)

Experiments:
Format in all cases: in vivo
Echinochloa crus-galli [1] = assay: Test Example 3: herbicidal effect test by treatment of dry field farming soil (one day after seeding); settings: 120 g/10a active ingredient, evaluated 14 days after treatment
Summary of the method: (§1)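 Alluvial dry-field soil in pots, top 1 cm mixed with 20 seeds per weed species. One day after seeding, the water-diluted emulsion was sprayed onto the soil surface at 100 L per 10 ares (120 g active ingredient per 10 ares). Duplicate pots; herbicidal rate (%) from plant dry weight versus untreated, 14 days after treatment.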

southern crabgrass [2] = assay: as above; settings: 120 g/10a active ingredient, evaluated 14 days after treatment
Summary of the method: as §1

Amaranthus viridis [3] = assay: as above; settings: 120 g/10a active ingredient, evaluated 14 days after treatment
Summary of the method: as §1

Chenopodium album [4] = assay: as above; settings: 120 g/10a active ingredient, evaluated 14 days after treatment
Summary of the method: as §1

Scirpus juncoides [5] = assay: Test Example 2: herbicidal effect test by treatment during growing period in paddy rice cultivation (seven days after seeding); settings: 120 g/10a active ingredient, assessed 14 days after treatment, dry weight vs untreated area
Summary of the method: (§2)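 Seeds sown 0–1 cm deep in puddled, fertilised paddy soil with about 3 cm standing water in a glass greenhouse. Diluted emulsion dropped into the water seven days after seeding at 120 g active ingredient per 10 ares. Herbicidal rate (%) from mean dry weight vs untreated, duplicate, 14 days after treatment.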

Echinochloa crus-galli [6] = assay: as above; settings: 120 g/10a active ingredient, assessed 14 days after treatment, dry weight vs untreated area
Summary of the method: as §2

[7] = system: broad leaf weeds (Lindernia pyxidaria and Monochoria vaginalis); assay: as above; settings: 120 g/10a active ingredient, assessed 14 days after treatment, dry weight vs untreated area
Summary of the method: as §2

Echinochloa crus-galli [8] = assay: Test Example 4: herbicidal effect test by treatment of leave and stem in dry field farming (seven days after seeding); settings: 120 g/10a active ingredient; emulsion sprayed seven days after seeding; evaluated 14 days after treatment
Summary of the method: (§3)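 Twenty seeds per species were mixed into the top 1 cm of alluvial soil in 36 cm^2 pots; emulsions were sprayed seven days after seeding at 100 L per 10 ares (120 g active ingredient per 10 ares). Herbicidal rate (%) = {1 − treated/untreated mean dry weight} × 100, 14 days after treatment, duplicate.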

southern crabgrass [9] = assay: as above; settings: 120 g/10a active ingredient; emulsion sprayed seven days after seeding; evaluated 14 days after treatment
Summary of the method: as §3

Amaranthus viridis [10] = assay: as above; settings: 120 g/10a active ingredient; emulsion sprayed seven days after seeding; evaluated 14 days after treatment
Summary of the method: as §3

Chenopodium album [11] = assay: as above; settings: 120 g/10a active ingredient; emulsion sprayed seven days after seeding; evaluated 14 days after treatment
Summary of the method: as §3

Scirpus juncoides [12] = assay: Test Example 1: herbicidal effect test by treatment of rice paddy soil (immediately after seeding); settings: 120 g/10a active ingredient, dry weight vs untreated area, 14 days after treatment
Summary of the method: (§4)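 Pre-emergence paddy water application, 120 g a.i./10 ares, applied immediately post-seeding into ~3 cm flood; glasshouse; duplicate pots; dry weight at 14 d → % inhibition = (1 − treated/untreated) × 100.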

Echinochloa crus-galli [13] = assay: as above; settings: 120 g/10a active ingredient, dry weight vs untreated area, 14 days after treatment
Summary of the method: as §4

[14] = system: broad leaf weeds (Lindernia pyxidaria and Monochoria vaginalis); assay: as above; settings: 120 g/10a active ingredient, dry weight vs untreated area, 14 days after treatment
Summary of the method: as §4

| SMILES | herbicidal rate, Echinochloa crus-galli (Echinochloa crus-galli [1]) [%] | herbicidal rate, southern crabgrass (southern crabgrass [2]) [%] | herbicidal rate, Amaranthus viridis (Amaranthus viridis [3]) [%] | herbicidal rate, Chenopodium album (Chenopodium album [4]) [%] | Herbicidal rate (%) Scirpus juncoides (Scirpus juncoides [5]) [%] | Herbicidal rate (%) Echinochloa crus-galli (Echinochloa crus-galli [6]) [%] | Herbicidal rate (%) Lindernia pyxidaria [7] [%] | Herbicidal rate (%) Monochoria vaginalis [7] [%] | herbicidal effect (herbicidal rate), Echinochloa crus-galli (Echinochloa crus-galli [8]) [%] | herbicidal effect (herbicidal rate), southern crabgrass (southern crabgrass [9]) [%] | herbicidal effect (herbicidal rate), Amaranthus viridis (Amaranthus viridis [10]) [%] | herbicidal effect (herbicidal rate), Chenopodium album (Chenopodium album [11]) [%] | Herbicidal rate (%) Scirpus juncoides (Scirpus juncoides [12]) [%] | Herbicidal rate (%) Echinochloa crus-galli (Echinochloa crus-galli [13]) [%] | Herbicidal rate (%) Lindernia pyxidaria [14] [%] | Herbicidal rate (%) Monochoria vaginalis [14] [%] |
| --- | --- | --- | --- | --- | --- | --- | --- | --- | --- | --- | --- | --- | --- | --- | --- | --- |
| CCC(C)n1oc(=O)c(Cc2ccccc2N(C(=O)Cc2ccccc2)S(=O)(=O)C(F)(F)F)c1C (stereo not shown) [Compound 1-504] | 90 | 90 | 90 | 90 | 90 | 90 | 90 | 90 | 90 | 90 | 40 | 40 | 90 | 90 | 90 | 90 |
| C=C(C)Cn1oc(=O)c(Cc2ccccc2NS(=O)(=O)C(F)(F)F)c1C [Compound 1-137] | 70 | 50 | 40 | 40 | 80 | 90 | 40 | 60 | 80 | 0 | 80 | 0 | 90 | 90 | 90 | 70 |
| Cc1c(Cc2ccccc2N(S(C)(=O)=O)S(=O)(=O)C(F)(F)F)c(=O)on1CC(C)(C)C [Compound 1-893] | 90 | 90 | 90 | 90 | 90 | 90 | 90 | 90 | 90 | 90 | 40 | 40 | 90 | 90 | 90 | 90 |
| Cc1c(Cc2ccccc2N(S(=O)(=O)C(F)(F)F)S(=O)(=O)C(F)(F)F)c(=O)on1C(c1ccccc1)C(C)C (stereo not shown) [Compound 1-1040] | 100 | 100 | 100 | 80 | 70 | 100 | 60 | 60 | 90 | 90 | 50 | 40 | 90 | 100 | 100 | 90 |
| COCC(C)n1oc(=O)c(Cc2ccccc2N(C(=O)C2CC2)S(=O)(=O)C(F)(F)F)c1C (stereo not shown) [Compound 1-412] | 90 | 90 | 90 | 90 | 90 | 90 | 90 | 90 | 90 | 90 | 40 | 40 | 90 | 90 | 90 | 90 |
| CCC(C)Cn1oc(=O)c(Cc2ccccc2N(C(=O)OC)S(=O)(=O)C(F)(F)F)c1C (stereo not shown) [Compound 1-583] | 100 | 90 | 60 | 50 | 90 | 100 | 80 | 90 | 80 | 60 | 50 | 50 | 90 | 100 | 90 | 90 |
| C=CC(C)n1oc(=O)c(Cc2ccccc2NS(=O)(=O)C(F)(F)F)c1C (stereo not shown) [Compound 1-136] | 100 | 100 | 100 | 60 | 90 | 90 | 60 | 70 | 70 | 70 | 60 | 60 | 90 | 100 | 80 | 70 |
| CCC(C)Cn1oc(=O)c(Cc2ccccc2N(S(C)(=O)=O)S(=O)(=O)C(F)(F)F)c1C (stereo not shown) [Compound 1-895] | 100 | 100 | 80 | 50 | 90 | 90 | 70 | 80 | 80 | 80 | 50 | 60 | 90 | 100 | 90 | 80 |
| Cc1c(Cc2ccccc2N(C(=O)CC(C)C)S(=O)(=O)C(F)(F)F)c(=O)on1C(C)(C)C [Compound 1-351] | 90 | 90 | 90 | 90 | 90 | 90 | 90 | 90 | 90 | 90 | 40 | 40 | 90 | 90 | 90 | 90 |
| CCC(=O)N(c1ccccc1Cc1c(C)n(C(C)CC)oc1=O)S(=O)(=O)C(F)(F)F (stereo not shown) [Compound 1-316] | 90 | 90 | 90 | 90 | 90 | 90 | 90 | 90 | 90 | 90 | 40 | 40 | 90 | 90 | 90 | 90 |
